Experiments:
surinam grass = assay: Test B pre/postemergence surinam grass; type: in vivo, Brachiaria decumbens
Outline: (§1)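 Response is a visual 0-to-10 score relative to untreated plants, where 0 means no effect and 10 means complete control, taken twelve to sixteen days after application. Treatments went onto soil at planting and onto foliage of 1- to 4-leaf plants, using a surfactant-containing non-phytotoxic solvent.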

rape = assay: Test B pre/postemergence rape; type: in vivo, Brassica napus
Outline: as §1

morningglory = assay: Test B pre/postemergence morningglory; type: in vivo, Ipomoea hederacea
Outline: as §1

soybean = assay: Test B pre/postemergence soybean; type: in vivo, Glycine max
Outline: as §1

velvetleaf = assay: Test B pre/postemergence velvetleaf; type: in vivo, Abutilon theophrasti
Outline: as §1

crabgrass = assay: Test B pre/postemergence crabgrass; type: in vivo, Digitaria sanguinalis
Outline: as §1

cocklebur = assay: Test B pre/postemergence cocklebur; type: in vivo, Xanthium strumarium
Outline: as §1

pigweed = assay: Test B pre/postemergence pigweed; type: in vivo, Amaranthus retroflexus
Outline: as §1

wheat = assay: Test B pre/postemergence wheat; type: in vivo, Triticum aestivum
Outline: as §1

purple nutsedge = assay: Test B pre/postemergence purple nutsedge; type: in vivo, Cyperus rotundus
Outline: as §1

blackgrass = assay: Test B pre/postemergence blackgrass; type: in vivo, Alopecurus myosuroides
Outline: as §1

giant foxtail = assay: Test B pre/postemergence giant foxtail; type: in vivo, Setaria faberii
Outline: as §1

sugar beet = assay: Test B pre/postemergence sugar beet; type: in vivo, Beta vulgaris
Outline: as §1

corn = assay: Test B pre/postemergence corn; type: in vivo, Zea mays
Outline: as §1

bedstraw = assay: Test B pre/postemergence bedstraw; type: in vivo, Galium aparine
Outline: as §1

wild oat = assay: Test B pre/postemergence wild oat; type: in vivo, Avena fatua
Outline: as §1

[1] = Postemergence, Rate 125 g/ha, scale of 0 to 10 where 0 is no effect and 10 is complete control
[2] = Preemergence, Rate 62 g/ha, scale 0 to 10 (0 no effect, 10 complete control)
[3] = Preemergence, Rate 125 g/ha, 0 is no effect, 10 is complete control
[4] = Preemergence, Rate 250 g/ha, scale 0 to 10, 0 is no effect, 10 is complete control
[5] = Preemergence, Rate 500 g/ha, scale 0 to 10 (0 no effect, 10 complete control)
[6] = Rate 62 g/ha, Postemergence, scale of 0 to 10 where 0 is no effect and 10 is complete control
[7] = Rate 250 g/ha, Postemergence, scale 0 to 10, 0 is no effect, 10 is complete control
[8] = Rate 500 g/ha, Postemergence, scale 0 to 10

CC(C)N(C(=O)n1oc(=O)n(C(C)c2ccccc2)c1=O)c1ccc(Cl)cc1 (centres unmarked) [Compound 133]
B. signalgrass plant response rating (surinam grass; [1]): 0
B. signalgrass plant response rating (surinam grass; [2]): 0
B. signalgrass plant response rating (0 to 10 scale) (surinam grass; [3]): 5
B. signalgrass plant response rating (surinam grass; [4]): 5
B. signalgrass plant response rating (surinam grass; [5]): 7
B. signalgrass plant response rating (surinam grass; [6]): 0
Plant response rating, B. signalgrass (surinam grass; [7]): 2
B. signalgrass plant response rating (surinam grass; Rate 500 g/ha, Postemergence, scale of 0 to 10 where 0 is no effect and 10 is complete control): 2
Rape plant response rating (rape; [1]): 0
Rape plant response rating (rape; [2]): 0
Rape plant response rating (0 to 10 scale) (rape; [3]): 0
Rape plant response rating (rape; [4]): 0
Rape plant response rating (rape; [5]): 2
Rape plant response rating (rape; [6]): 0
Plant response rating, Rape (rape; [7]): 0
Rape plant response rating (rape; [8]): 0
Morningglory plant response rating (morningglory; [1]): 3
Morningglory plant response rating (morningglory; [2]): 0
Morningglory plant response rating (0 to 10 scale) (morningglory; [3]): 0
Morningglory plant response rating (morningglory; [4]): 0
Morningglory plant response rating (morningglory; [5]): 0
Morningglory plant response rating (morningglory; [6]): 2
Plant response rating, Morningglory (morningglory; [7]): 4
Morningglory plant response rating (morningglory; [8]): 8
Soybean plant response rating (soybean; [1]): 3
Soybean plant response rating (soybean; [2]): 0
Soybean plant response rating (0 to 10 scale) (soybean; [3]): 0
Soybean plant response rating (soybean; [4]): 0
Soybean plant response rating (soybean; [5]): 0
Soybean plant response rating (soybean; [6]): 1
Plant response rating, Soybean (soybean; [7]): 3
Soybean plant response rating (soybean; [8]): 3
Velvetleaf plant response rating (velvetleaf; [1]): 0
Velvetleaf plant response rating (velvetleaf; [2]): 0
Velvetleaf plant response rating (0 to 10 scale) (velvetleaf; [3]): 0
Velvetleaf plant response rating (velvetleaf; [4]): 2
Velvetleaf plant response rating (velvetleaf; [5]): 2
Velvetleaf plant response rating (velvetleaf; [6]): 0
Plant response rating, Velvetleaf (velvetleaf; [7]): 2
Velvetleaf plant response rating (velvetleaf; [8]): 5
Crabgrass plant response rating (crabgrass; [1]): 2
Crabgrass plant response rating (crabgrass; [2]): 1
Crabgrass plant response rating (0 to 10 scale) (crabgrass; [3]): 3
Crabgrass plant response rating (crabgrass; [4]): 5
Crabgrass plant response rating (crabgrass; [5]): 5
Crabgrass plant response rating (crabgrass; [6]): 0
Plant response rating, Crabgrass (crabgrass; [7]): 4
Crabgrass plant response rating (crabgrass; [8]): 4
Cocklebur plant response rating (cocklebur; [1]): 2
Cocklebur plant response rating (cocklebur; [2]): 0
Cocklebur plant response rating (0 to 10 scale) (cocklebur; [3]): 0
Cocklebur plant response rating (cocklebur; [4]): 0
Cocklebur plant response rating (cocklebur; [5]): 2
Cocklebur plant response rating (cocklebur; [6]): 2
Plant response rating, Cocklebur (cocklebur; [7]): 2
Cocklebur plant response rating (cocklebur; [8]): 3
Redroot pigweed plant response rating (pigweed; [1]): 0
Redroot pigweed plant response rating (pigweed; [2]): 0
Redroot pigweed plant response rating (0 to 10 scale) (pigweed; [3]): 0
Redroot pigweed plant response rating (pigweed; [4]): 0
Redroot pigweed plant response rating (pigweed; [5]): 3
Redroot pigweed plant response rating (pigweed; [6]): 0
Plant response rating, Redroot pigweed (pigweed; [7]): 0
Redroot pigweed plant response rating (pigweed; [8]): 2
Wheat plant response rating (wheat; [1]): 0
Wheat plant response rating (wheat; [2]): 0
Wheat plant response rating (0 to 10 scale) (wheat; [3]): 0
Wheat plant response rating (wheat; [4]): 0
Wheat plant response rating (wheat; [5]): 0
Wheat plant response rating (wheat; [6]): 0
Plant response rating, Wheat (wheat; [7]): 0
Wheat plant response rating (wheat; [8]): 2
Nutsedge plant response rating (purple nutsedge; [1]): 0
Nutsedge plant response rating (purple nutsedge; [2]): 0
Nutsedge plant response rating (0 to 10 scale) (purple nutsedge; [3]): 0
Nutsedge plant response rating (purple nutsedge; [4]): 0
Nutsedge plant response rating (purple nutsedge; [5]): 0
Nutsedge plant response rating (purple nutsedge; [6]): 0
Plant response rating, Nutsedge (purple nutsedge; [7]): 0
Nutsedge plant response rating (purple nutsedge; [8]): 0
Blackgrass plant response rating (blackgrass; [1]): 2
Blackgrass plant response rating (blackgrass; [2]): 3
Blackgrass plant response rating (0 to 10 scale) (blackgrass; [3]): 3
Blackgrass plant response rating (blackgrass; [4]): 3
Blackgrass plant response rating (blackgrass; [5]): 5
Blackgrass plant response rating (blackgrass; [6]): 0
Plant response rating, Blackgrass (blackgrass; [7]): 2
Blackgrass plant response rating (blackgrass; [8]): 4
Giant foxtail plant response rating (giant foxtail; [1]): 2
Giant foxtail plant response rating (giant foxtail; [2]): 3
Giant foxtail plant response rating (0 to 10 scale) (giant foxtail; [3]): 7
Giant foxtail plant response rating (giant foxtail; [4]): 9
Giant foxtail plant response rating (giant foxtail; [5]): 10
Giant foxtail plant response rating (giant foxtail; [6]): 0
Plant response rating, Giant foxtail (giant foxtail; [7]): 3
Giant foxtail plant response rating (giant foxtail; [8]): 4
Sugarbeets plant response rating (sugar beet; [1]): 0
Sugarbeets plant response rating (sugar beet; [2]): 0
Sugarbeets plant response rating (0 to 10 scale) (sugar beet; [3]): 2
Sugarbeets plant response rating (sugar beet; [4]): 3
Sugarbeets plant response rating (sugar beet; [5]): 5
Sugarbeets plant response rating (sugar beet; [6]): 0
Plant response rating, Sugarbeets (sugar beet; [7]): 0
Sugarbeets plant response rating (sugar beet; [8]): 2
Corn plant response rating (corn; [1]): 0
Corn plant response rating (corn; [2]): 0
Corn plant response rating (0 to 10 scale) (corn; [3]): 0
Corn plant response rating (corn; [4]): 0
Corn plant response rating (corn; [5]): 0
Corn plant response rating (corn; [6]): 0
Plant response rating, Corn (corn; [7]): 0
Corn plant response rating (corn; [8]): 0
Bedstraw plant response rating (bedstraw; [1]): 4
Bedstraw plant response rating (bedstraw; [2]): 0
Bedstraw plant response rating (0 to 10 scale) (bedstraw; [3]): 0
Bedstraw plant response rating (bedstraw; [4]): 0
Bedstraw plant response rating (bedstraw; [5]): 0
Bedstraw plant response rating (bedstraw; [6]): 0
Plant response rating, Bedstraw (bedstraw; [7]): 7
Bedstraw plant response rating (bedstraw; Rate 500 g/ha, Postemergence, scale 0 to 10, 0 no effect, 10 complete control): 7
Wild oats plant response rating (wild oat; [1]): 0
Wild oats plant response rating (wild oat; [2]): 0
Wild oats plant response rating (0 to 10 scale) (wild oat; [3]): 2
Wild oats plant response rating (wild oat; [4]): 2
Wild oats plant response rating (wild oat; [5]): 4
Wild oats plant response rating (wild oat; [6]): 0
Plant response rating, Wild oats (wild oat; [7]): 0
Wild oats plant response rating (wild oat; [8]): 0
